Here are results for one molecule from US20170334927A1 (Shanghai Sun-sail Pharmaceutical Science & Technology Co., …, priority 2014, published 2017).

The structures appear in SMILES notation. In brackets after ≈: the same amount, converted by molar mass.

Series [1] can be described thus: physchem. To be noted: pH 1.2, simulated gastric fluid, thermodynamic from solid, Solubility. It is filed as physicochemical. The protocol: 3-5 mg of compound to be tested was added to 0.5 mL of aqueous HCl solution (pH=1.2) and the mixture was shaken for three days on a shaker; the sample was centrifuged for 5 min at 10,000 rpm in a centrifuge; a volumetric flask (50 mL) was loaded with 2 mL of supernatant and water was added to a volume at the graduation mark to prepare a sample solution; and 2.6 mg of sample was precisely weighed into a volumetric flask (50 mL), an appropriate amount of methanol was added to dissolve the sample, and water was added to a volume at the graduation mark and shaken well to give a control sample solution. 20 μL of sample solution and control sample solution were each injected, and tested by liquid chromatography. The solubility was calculated as follows:
Solubility (mg/mL)=C (control)*25*A (sample)/A (control)
C (control): concentration of the control sample
A (sample): peak area of the liquid chromatogram of the sample solution
A (control): peak area of the liquid chromatogram of the control sample solution

The test system of series [2] is Mycobacterium tuberculosis H37Rv. The experiment in a line: Activity test for Mycobacterium tuberculosis (MIC, H37Rv). The conditions noted are these: Mycobacterium tuberculosis H37Rv, liquid medium, 37° C.; read-out: Minimum inhibitory concentration against H37Rv. In kind it is cell-based. The procedure:
The tested strain H37Rv was transferred to liquid medium and cultured for 2 weeks at 37° C.; a small amount of the cultured bacterial solution was pipetted and placed in 4 mL of liquid medium; 10-20 sterile glass beads with a diameter of 2-3 mm were added; the mixture was shaken for 20-30 s and left to sediment for 10-20 min; the supernatant of the bacterial suspension was pipetted and adjusted to a turbidity of 1 MCF (equivalent to 1×10^7 CFU/mL) with the liquid medium for use. Each drug was dissolved to 1 mg/mL with an appropriate amount of DMSO and filtered with a 0.22 μm filter. Then, the solution was diluted to a desired experimental concentration with the liquid medium. The final concentrations of the tested drugs were set as follows: 0.001 μg/mL, 0.002 μg/mL, 0.0039 μg/mL, 0.0078 μg/mL, […], 0.03125 μg/mL, 0.0625 μg/mL, 0.125 μg/mL, 0.25 μg/mL, 0.5 μg/mL and 1 μg/mL, a total of 11 concentration gradients. 100 μL of each of the above-mentioned drug solutions was added to a 96-well microwell plate, then 100 μL bacterial solution with a concentration of 1 mg/mL was added to allow the drug concentration to reach the final set concentration, and cultured at 37° C. Three groups in parallel were set for each drug dilution with inoculation amounts of 100%, 10% and 1%, respectively, while no drug was added to the control group.

The conditions of series [3]: in vivo; cited from earlier work.

A word on the solubility: it is how much of the substance goes into solution per volume. Read a low solubility as little dissolved substance.

`O=[N+]([O-])c1cn2c(n1)OC[C@@H](OCc1ccc(OC(F)(F)F)cc1)C2` [PA-824, reference compound] returned a solubility at 3 days in series [1] of 17 µg/mL (≈ 47.3 µM). In addition, the MIC in series [2] came to 0.0625 µg/mL (≈ 0.174 µM). The “oral bioavailability (in words, background)” value in series [3] was “low”.
